The record followed here is US12662479B2 (Foghorn Therapeutics Inc., priority 2020, dated 2026).

The target of test [1] is T1, HiBit-BRG1 fusion protein (Homo sapiens, UniProt P51532).
T1 construct: expressed in transfected cells
Description: HiBiT-BRG1 cell-based degradation assay (Nano-Glo HiBiT Lytic Detection, 24 h). The following applies: HeLa cells expressing HiBit-BRG1 and LgBit; for DC50: read-out: BRG1 HiBit Degradation IC50; for Dmax: HeLa, top dose 30 μM, read-out: BRG1 HiBit Degradation Maximum measured. In short, it runs like this: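 Stable HeLa line expressing HiBiT-BRG1 and LgBiT, seeded at 5000 cells/well; luminescence read after lytic Nano-Glo HiBiT reagent and 10 min shaking at RT. % degradation normalised between DMSO (high control) and 2 μM reference BRM/BRG1 degrader (low control).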
(In general: With HiBiT, luminescence reflects the tagged protein that the partner subunit can reach.)

Test [2] deals with T2, HiBit-BRM fusion protein (Homo sapiens, UniProt P51531).
T2 construct: expressed in transfected cells
T2 sequence (P51531 whole entry, the tested form may be a part): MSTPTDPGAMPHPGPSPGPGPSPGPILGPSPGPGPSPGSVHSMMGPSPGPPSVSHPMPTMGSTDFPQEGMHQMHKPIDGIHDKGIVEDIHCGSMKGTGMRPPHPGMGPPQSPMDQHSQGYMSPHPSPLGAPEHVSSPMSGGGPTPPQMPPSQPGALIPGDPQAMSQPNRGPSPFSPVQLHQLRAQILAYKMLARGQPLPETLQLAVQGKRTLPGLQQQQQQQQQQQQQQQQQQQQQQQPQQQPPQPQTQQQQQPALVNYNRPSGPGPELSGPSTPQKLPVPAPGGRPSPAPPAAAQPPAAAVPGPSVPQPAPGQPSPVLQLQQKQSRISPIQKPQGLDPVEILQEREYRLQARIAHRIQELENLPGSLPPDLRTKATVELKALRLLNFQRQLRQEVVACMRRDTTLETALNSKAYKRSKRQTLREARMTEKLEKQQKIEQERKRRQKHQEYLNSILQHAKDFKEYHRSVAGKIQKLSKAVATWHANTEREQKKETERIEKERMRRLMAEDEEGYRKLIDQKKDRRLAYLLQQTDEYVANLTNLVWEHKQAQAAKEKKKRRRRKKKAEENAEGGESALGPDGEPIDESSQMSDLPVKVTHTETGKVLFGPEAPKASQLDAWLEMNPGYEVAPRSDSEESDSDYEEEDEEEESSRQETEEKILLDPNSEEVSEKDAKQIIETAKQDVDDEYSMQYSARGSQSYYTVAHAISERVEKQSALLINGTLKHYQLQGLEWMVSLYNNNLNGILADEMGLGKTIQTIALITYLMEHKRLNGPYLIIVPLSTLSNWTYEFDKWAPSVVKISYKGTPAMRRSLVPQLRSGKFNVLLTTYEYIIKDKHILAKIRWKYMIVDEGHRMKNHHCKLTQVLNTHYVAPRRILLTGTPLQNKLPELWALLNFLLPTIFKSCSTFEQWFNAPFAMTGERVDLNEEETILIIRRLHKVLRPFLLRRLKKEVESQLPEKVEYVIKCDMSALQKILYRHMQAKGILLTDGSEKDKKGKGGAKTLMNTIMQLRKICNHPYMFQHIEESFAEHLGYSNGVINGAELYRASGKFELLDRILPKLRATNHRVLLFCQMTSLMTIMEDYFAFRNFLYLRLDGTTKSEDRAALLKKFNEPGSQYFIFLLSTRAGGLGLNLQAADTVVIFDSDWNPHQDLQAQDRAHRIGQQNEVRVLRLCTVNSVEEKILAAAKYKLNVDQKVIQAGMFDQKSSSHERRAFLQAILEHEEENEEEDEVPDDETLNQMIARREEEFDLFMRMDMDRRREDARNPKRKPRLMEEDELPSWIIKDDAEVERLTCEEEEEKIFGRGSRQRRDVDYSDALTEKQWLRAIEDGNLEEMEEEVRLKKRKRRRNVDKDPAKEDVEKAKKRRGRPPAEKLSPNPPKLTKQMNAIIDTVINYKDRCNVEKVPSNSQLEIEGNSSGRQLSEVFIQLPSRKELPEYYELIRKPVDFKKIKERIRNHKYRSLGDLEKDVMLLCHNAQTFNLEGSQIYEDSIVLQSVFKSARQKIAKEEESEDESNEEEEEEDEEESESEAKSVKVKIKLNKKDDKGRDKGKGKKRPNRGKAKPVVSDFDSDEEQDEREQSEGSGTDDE
Description: HiBiT-BRM cell-based degradation assay (Nano-Glo HiBiT Lytic Detection, 24 h). The following applies: HeLa cells expressing HiBiT-BRM; for DC50: read-out: BRM HiBit Degradation IC50; for BRM HiBit Degradation Maximum measured: top dose 30 μM. In short, it runs like this:
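HeLa cells stably expressing HiBiT-BRM were dosed with compounds (10-point 3-fold dilutions, 30 μM final top dose, duplicate) for 24 h. HiBiT signal was read by lytic LgBiT complementation luminescence. Percent degradation was normalised to DMSO (high control) and 2 μM of a reference BRM/BRG1 degrader (low control).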

Where a name gives a salt, the structure may show the parent alone. Bounds are passed on as bounds.

T1 sequence (P51532 whole entry, the tested form may be a part): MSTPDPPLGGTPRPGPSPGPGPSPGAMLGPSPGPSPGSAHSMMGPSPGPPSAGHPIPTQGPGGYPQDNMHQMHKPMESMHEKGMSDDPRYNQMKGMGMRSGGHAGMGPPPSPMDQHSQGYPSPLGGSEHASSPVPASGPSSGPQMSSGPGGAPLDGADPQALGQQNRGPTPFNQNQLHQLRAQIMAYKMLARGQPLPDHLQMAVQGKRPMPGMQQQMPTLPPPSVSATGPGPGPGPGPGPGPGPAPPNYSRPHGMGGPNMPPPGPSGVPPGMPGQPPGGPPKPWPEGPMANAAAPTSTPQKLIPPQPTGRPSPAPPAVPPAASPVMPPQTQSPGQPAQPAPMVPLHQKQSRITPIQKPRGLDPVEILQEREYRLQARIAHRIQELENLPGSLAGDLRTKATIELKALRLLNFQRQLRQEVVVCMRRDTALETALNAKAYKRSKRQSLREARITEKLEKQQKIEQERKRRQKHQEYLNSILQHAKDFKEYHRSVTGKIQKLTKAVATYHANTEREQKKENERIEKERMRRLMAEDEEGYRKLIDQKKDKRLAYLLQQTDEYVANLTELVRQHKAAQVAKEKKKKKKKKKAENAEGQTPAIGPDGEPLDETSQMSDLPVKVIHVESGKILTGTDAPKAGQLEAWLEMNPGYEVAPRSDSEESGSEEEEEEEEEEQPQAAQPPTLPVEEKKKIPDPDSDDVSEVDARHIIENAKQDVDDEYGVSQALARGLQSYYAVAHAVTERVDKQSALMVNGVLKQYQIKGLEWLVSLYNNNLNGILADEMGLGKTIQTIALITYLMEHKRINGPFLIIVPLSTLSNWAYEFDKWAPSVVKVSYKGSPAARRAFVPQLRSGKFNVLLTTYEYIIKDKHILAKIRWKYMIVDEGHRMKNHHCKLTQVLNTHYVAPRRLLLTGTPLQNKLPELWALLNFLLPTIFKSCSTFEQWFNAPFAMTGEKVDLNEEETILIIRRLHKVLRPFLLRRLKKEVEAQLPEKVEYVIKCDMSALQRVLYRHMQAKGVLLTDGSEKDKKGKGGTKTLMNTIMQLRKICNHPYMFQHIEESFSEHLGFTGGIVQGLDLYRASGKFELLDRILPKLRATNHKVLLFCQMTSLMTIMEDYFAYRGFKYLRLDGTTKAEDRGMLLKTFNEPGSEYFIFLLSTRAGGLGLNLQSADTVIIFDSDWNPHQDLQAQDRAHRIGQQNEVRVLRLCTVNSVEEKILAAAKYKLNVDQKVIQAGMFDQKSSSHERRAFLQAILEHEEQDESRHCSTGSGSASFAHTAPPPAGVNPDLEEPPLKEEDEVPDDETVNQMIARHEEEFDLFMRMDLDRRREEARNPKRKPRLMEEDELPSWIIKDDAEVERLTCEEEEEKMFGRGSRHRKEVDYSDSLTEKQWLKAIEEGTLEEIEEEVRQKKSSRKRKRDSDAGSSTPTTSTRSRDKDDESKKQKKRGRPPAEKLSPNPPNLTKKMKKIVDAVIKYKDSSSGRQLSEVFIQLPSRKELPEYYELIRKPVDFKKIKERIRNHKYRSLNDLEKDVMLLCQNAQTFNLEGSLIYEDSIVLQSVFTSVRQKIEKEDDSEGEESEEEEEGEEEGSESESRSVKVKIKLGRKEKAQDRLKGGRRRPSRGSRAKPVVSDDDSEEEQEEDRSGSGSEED

Take `Cc1ncsc1-c1ccc(CNC(=O)[C@@H]2C[C@@H](O)CN2C(=O)[C@@H](NC(=O)CCN2CCC(C(=O)NCc3cccc(-c4cccc(-c5csc(NC(=O)CNC(=O)c6ccn(S(C)(=O)=O)c6)n5)c4)c3)CC2)C(C)(C)C)cc1` [Compound 155, 1-(2-[[(2S)-1-[(2S,4R)-4-hydroxy-2-([[4-(4-methyl-1,3-thiazol-5-yl)phenyl]methyl]carbamoyl)pyrrolidin-1-yl]-3,3-dimethyl-1-oxobutan-2-yl]carbamoyl]ethyl)-N-[[3-(2-[2-[(1-methanesulfonylpyrrol-3-yl)formamido]acetamido]-1,3-thiazol-4-yl)-[1,1-biphenyl]-3-yl]methyl]piperidine-4-carboxamide formate]: the DC50 in test [1] was over 10 µM. For the same molecule, in test [2], the DC50 is over 10 µM and the “BRM HiBit Degradation Maximum measured” value was “C (‘C’ = Maximum degradation <50%)”.

Turning to `CS(=O)(=O)n1ccc(C(=O)NCC(=O)Nc2nc(-c3cccc(-c4ccnc(C5(C(=O)N6CC(CN7CCN(c8ccc9c(c8)C(=O)N(C8CCC(=O)NC8=O)C9=O)CC7)C6)CC5)c4)c3)cs2)c1` (centres unmarked) [Compound 156, N-[4-[3-(2-[1-[3-([4-[2-(2,6-dioxopiperidin-3-yl)-1,3-dioxoisoindol-5-yl]piperazin-1-yl]methyl)azetidine-1-carbonyl]cyclopropyl]pyridin-4-yl)phenyl]-1,3-thiazol-2-yl]-2-[(1-methanesulfonylpyrrol-3-yl)formamido]acetamide], in test [1], the DC50 was 0.1 to 1 µM and the Dmax was over 75%. For the same molecule, in test [2], the DC50 was in the range of 0.1 to 1 µM and the “BRM HiBit Degradation Maximum measured” value is reported as “A (‘A’ = Maximum degradation >75%)”.

As to `Cc1ncsc1-c1ccc(CNC(=O)[C@@H]2C[C@@H](O)CN2C(=O)[C@@H](NC(=O)CN2CC(C(=O)NCc3cccc(-c4cccc(-c5csc(NC(=O)CNC(=O)c6ccn(S(C)(=O)=O)c6)n5)c4)c3)C2)C(C)(C)C)cc1` [Compound 157, (2S,4R)-4-hydroxy-1-[(2S)-2-[2-[3-([[3-(2-[2-[(1-methan-esulfonyl-pyrrol-3-yl)formamido]acetamido]-1,3-thiazol-4-yl)-[1,1-biphenyl]-3-yl]methyl]carbamoyl)azetidin-1-yl]acetamido]-3,3-dimethylbutanoyl]-N-[[4-(4-methyl-1,3-thiazol-5-yl)phenyl]methyl]pyrr-oledine-2-carboxamide], in test [1], the DC50 is over 10 µM and the Dmax is under 50%. Moreover, in test [2], the DC50 is over 10 µM and the “BRM HiBit Degradation Maximum measured” value is “C (‘C’ = Maximum degradation <50%)”.

Regarding `Cc1ncsc1-c1ccc(CNC(=O)[C@@H]2C[C@@H](O)CN2C(=O)[C@@H](NC(=O)NCc2cccc(-c3cccc(-c4csc(NC(=O)CNC(=O)c5ccn(S(C)(=O)=O)c5)n4)c3)c2)C(C)(C)C)cc1` [Compound 158, (2S,4R)-4-hydroxy-1-[(2S)-2-[([[3-(2-[2-[(1-methanesulfonylpyrrol-3-yl)formamido]acetamido]-1,3-thiazol-4-yl)-[1,1-biphenyl]-3-yl]methyl]carbamoyl)amino]-3,3-dimethylbutanoyl]-N-[[4-(4-methyl-1,3-thiazol-5-yl)phenyl]methyl]pyrrolidine-2-carboxamide], in test [1], the DC50 is over 10 µM and the Dmax is under 50%. In test [2], the DC50 was over 10 µM and the “BRM HiBit Degradation Maximum measured” value is given as “C (‘C’ = Maximum degradation <50%)”.

Turning to `Cc1ncsc1-c1ccc(CNC(=O)[C@@H]2C[C@@H](O)CN2C(=O)[C@@H](NC(=O)C2CC2C(=O)NCc2cccc(-c3cccc(-c4csc(NC(=O)CNC(=O)c5ccn(S(C)(=O)=O)c5)n4)c3)c2)C(C)(C)C)cc1` (stereo partly drawn) [Compound 159, N1-[(2S)-1-[(2S,4R)-4-hydroxy-2-([[4-(4-methyl-1,3-thiazol-5-yl)phenyl]methyl]carbamoyl)pyrrolidin-1-yl]-3,3-dimethyl-1-oxobutan-2-yl]-N2-[[3-(2-[2-[(1-methanesulfonylpyrrol-3-yl)formamido]acetamido]-1,3-thiazol-4-yl)-[1,1-biphenyl]-3-yl]methyl]cyclopropane-1,2-dicarboxamide], in test [1], the DC50 was over 10 µM and the Dmax was under 50%. Moreover, in test [2], the DC50 is over 10 µM and the “BRM HiBit Degradation Maximum measured” value is on record as “C (‘C’ = Maximum degradation <50%)”.

On to `Cc1ncsc1-c1ccc(CNC(=O)[C@@H]2C[C@@H](O)CN2C(=O)[C@@H](NC(=O)N2CC(C(=O)NCc3cccc(-c4cccc(-c5csc(NC(=O)CNC(=O)c6ccn(S(C)(=O)=O)c6)n5)c4)c3)C2)C(C)(C)C)cc1` [Compound 160, N1-[(2S)-1-[(2S,4R)-4-hydroxy-2-([[4-(4-methyl-1,3-thiazol-5-yl)phenyl]methyl]carbamoyl)pyrrolidin-1-yl]-3,3-dimethyl-1-oxobutan-2-yl]-N3-[[3-(2-[2-[(1-methanesulfonylpyrrol-3-yl)formamido]acetamido]-1,3-thiazol-4-yl)-[1,1-biphenyl]-3-yl]methyl]azetidine-1,3-dicarboxamide], for which, in test [1], the DC50 was over 10 µM and the Dmax was under 50%. Moreover, in test [2], the DC50 is over 10 µM and the “BRM HiBit Degradation Maximum measured” value is recorded as “C (‘C’ = Maximum degradation <50%)”.

As for `CS(=O)(=O)n1ccc(C(=O)NCC(=O)Nc2nc(-c3cccc(-c4ccnc(C5(C(=O)NCCOc6ccc7c(c6)C(=O)N(C6CCC(=O)NC6=O)C7=O)CC5)c4)c3)cs2)c1` (centres unmarked) [Compound 161], in test [1], the DC50 lay in the range of 0.1 to 1 µM and the Dmax is over 75%. Moreover, in test [2], the DC50 is 0.1 to 1 µM; the “BRM HiBit Degradation Maximum measured” value was “B (‘B’ = Maximum degradation ≥50% and ≤75%)”.

`CN(CCNc1ccc2c(c1)C(=O)N(C1CCC(=O)NC1=O)C2=O)C(=O)C1(c2cc(-c3cccc(-c4csc(NC(=O)CNC(=O)c5ccn(S(C)(=O)=O)c5)n4)c3)ccn2)CC1` (centres unmarked) [Compound 162, N-(2-[[2-(2,6-dioxopiperidin-3-yl)-1,3-dioxoisoindol-5-yl]amino]ethyl)-1-[4-[3-(2-[2-[(1-methanesulfonylpyrrol-3-yl)formamido]acetamido]-1,3-thiazol-4-yl)phenyl]pyridin-2-yl]-N-methylcyclopropane-1-carboxamide]: in test [1], the DC50 was over 10 µM and the Dmax is under 50%. Also, in test [2], the DC50 is over 10 µM and the “BRM HiBit Degradation Maximum measured” value is recorded as “C (‘C’ = Maximum degradation <50%)”.

Regarding `Cc1ncsc1-c1ccc(CNC(=O)[C@@H]2C[C@@H](O)CN2C(=O)[C@@H](NC(=O)CN2CC3(CC(C(=O)NCc4cccc(-c5cccc(-c6csc(NC(=O)CNC(=O)c7ccn(S(C)(=O)=O)c7)n6)c5)c4)C3)C2)C(C)(C)C)cc1` [Compound 163, 2-([[(2S)-1-[(2S,4R)-4-hydroxy-2-([[4-(4-methyl-1,3-thiazol-5-yl)phenyl]methyl]carbamoyl)pyrrolidin-1-yl]-3,3-dimethyl-1-oxobutan-2-yl]carbamoyl]methyl)-N-[[3-(2-[2-[(1-methanesulfonylpyrrol-3-yl)formamido]acetamido]-1,3-thiazol-4-yl)-[1,1-biphenyl]-3-yl]methyl]-2-azaspiro[3.3]heptane-6-carboxamide], in test [1], the DC50 is over 10 µM and the Dmax was under 50%. Besides, in test [2], the DC50 lay within 0.1 to 1 µM; the “BRM HiBit Degradation Maximum measured” value was “B (‘B’ = Maximum degradation ≥50% and ≤75%)”.

For `Cc1ncsc1-c1ccc(CNC(=O)[C@@H]2C[C@@H](O)CN2C(=O)[C@@H](NCc2cccc(-c3cccc(-c4csc(NC(=O)CNC(=O)c5ccn(S(C)(=O)=O)c5)n4)c3)c2)C(C)(C)C)cc1` [Compound 164, (2S,4R)-4-hydroxy-1-[(2S)-2-([[3′-(2-[2-[(1-methanesulfonylpyrrol-3-yl)formamido]acetamido]-1,3-thiazol-4-yl)-[1,1′-biphenyl]-3-yl]methyl]amino)-3,3-dimethylbutanoyl]-N-[[4-(4-methyl-1,3-thiazol-5-yl)phenyl]methyl]pyrrolidine-2-carboxamide], in test [1], the DC50 was over 10 µM and the Dmax was under 50%. Moreover, in test [2], the DC50 is over 10 µM and the “BRM HiBit Degradation Maximum measured” value was “C (‘C’ = Maximum degradation <50%)”.

Take `CS(=O)(=O)n1ccc(C(=O)NCC(=O)Nc2nc(-c3cccc(-c4ccnc(N5CCN(c6ccc7c(c6)C(=O)N(C6CCC(=O)NC6=O)C7=O)CC5)c4)c3)cs2)c1` (centres unmarked) [Compound 165, N-[4-[3-(2-[4-[2-(2,6-dioxopiperidin-3-yl)-1,3-dioxoisoindol-5-yl]piperazin-1-yl]pyridin-4-yl)phenyl]-1,3-thiazol-2-yl]-2-[(1-methanesulfonylpyrrol-3-yl)formamido]acetamide trifluoroacetate]: in test [1], the DC50 is over 10 µM and the Dmax was under 50%. In test [2], the DC50 is over 10 µM and the “BRM HiBit Degradation Maximum measured” value was “C (‘C’ = Maximum degradation <50%)”.

With `Cc1ncsc1-c1ccc(CNC(=O)[C@@H]2C[C@@H](O)CN2C(=O)[C@@H](NC(=O)CN2CC3(CN(CC(=O)NCc4cccc(-c5cccc(-c6csc(NC(=O)CNC(=O)c7ccn(S(C)(=O)=O)c7)n6)c5)c4)C3)C2)C(C)(C)C)cc1.O=C(O)C(F)(F)F` [Compound 166, (2S,4R)-4-hydroxy-1-[(2S)-2-(2-[6-[([[3′-(2-[2-[(1-methanesulfonylpyrrol-3-yl)formamido]acetamido]-1,3-thiazol-4-yl)-[1,1′-biphenyl]-3-yl]methyl]carbamoyl)methyl]-2,6-diazaspiro[3.3]heptan-2-yl]acetamido)-3,3-dimethylbutanoyl]-N-[[4-(4-methyl-1,3-thiazol-5-yl)phenyl]methyl]pyrrolidine-2-carboxamide trifluoroacetate], in test [1], the DC50 is over 10 µM and the Dmax is under 50%. For the same molecule, in test [2], the DC50 lay in the range of 0.1 to 1 µM; the “BRM HiBit Degradation Maximum measured” value was “B (‘B’ = Maximum degradation ≥50% and ≤75%)”.
